According to patent US9624286B2, “Composition comprising peptide derived from adiponectin” (KNU-INDUSTRY COOPERATION FOUNDATION, priority 2013, dated 2017):

Tests used:
[1] = system: NIH3T3 cells; experiment: Tests for facilitating the proliferation of mouse fibroblast cell line NIH3T3 (CCK-8); type: cell-based; conditions: peptide 10 μM; 24, 48 and 72 hours; CCK-8 absorbance at 475 nm; FIG. 1
Description: The NIH3T3 cells (mouse fibroblast cell line, ATCC CRL-1658, USA), along with 100 μl of Dulbecco's Modified Eagle medium (DMEM), were added to each well of the 96-well microplate in the concentration of 5×10^3 cells per well, and then cultured in a 5% CO2 incubator at 37° C. for 24 hours. The peptide solutions (100 μl) having the respective peptide of SEQ ID NOs: 1, 2, 3 and 5 in the concentration of 10 μM were added to each well. While incubating the cells for 24, 48, and 72 hours therefrom, 10 μl of CCK-8 (Dojindo Laboratories, Japan) was added to each well and then the respective absorbance at 475 nm was measured with Spectramax plus 190 plate reader (Molecular Devices, USA).

[2] = system: procollagen type-1; experiment: Activation of the procollagen type-1 expression in fibroblasts (Western blotting); type: cell-based, mouse; conditions: NIH3T3 cells, peptide 0.1, 1 and 10 μM, 48 hours, concentration-dependent, FIG. 2
Description: Since facilitation of the collagen fiber synthesis is one of the principal means for inhibiting skin aging, we evaluate whether the collagen synthesis in fibroblasts is facilitated by the treatment of the peptides of the present invention, using the NIH3T3 cells (mouse fibroblast cell line, ATCC CRL-1658, USA). The fibroblasts were treated with the peptides of SEQ ID NOs: 1, 2, 3 and 5, in the concentrations of 0.1, 1 and 10 μM, respectively. After 48 hours, the cell extracts were subject to the Western blotting assay so as to measure the expressions of procollagen type-1. […] Therefore, it can be seen that the peptides of the present invention can inhibit skin aging derived from loss of collagen, especially skin wrinkle.

[3] = system: profilaggrin; experiment: Control of the profilaggrin expression in human keratinocyte cell line HaCaT (Western blotting); type: cell-based; conditions: HaCaT cells, peptide 0.1, 1.0 and 10 μM, 48 hours, concentration-dependent, FIG. 3
Description: Since profilaggrin is one of the principal elements for constituting skin barrier, we evaluate whether the profilaggrin synthesis in keratinocytes is facilitated by the treatment of the peptides of the present invention, using the HaCaT cells (human keratinocyte cell line, DKFZ, Heidelberg, Germany). The HaCaT cells were treated with the peptides of SEQ ID NOs: 3 and 5, in the concentrations of 0.1, 1.0 and 10 μM. After 48 hours, the cell extracts were subject to the Western blotting assay so as to measure the expressions of profilaggrin. […] Therefore, it can be seen that the peptides of the present invention have a skin-moisturizing activity through facilitating the profilaggrin expression.

Row | Substance | proliferations of NIH3T3 cells [1] | expressions of procollagen type-1 [2] | expressions of profilaggrin [3]
1 | His-Ile-Thr (HIT; Peptide fragment) [SEQ ID NO: 2, adiponectin-derived peptide fragment] | significantly increased | increased | –
2 | Leu-Phe-Thr-Tyr-Asp (LFTYD; Peptide fragment) [SEQ ID NO: 3, adiponectin-derived peptide fragment] | significantly increased | increased | increased
3 | Phe-Thr-Tyr (FTY; Peptide fragment) [SEQ ID NO: 5, adiponectin-derived peptide fragment] | significantly increased | increased | increased
4 | Tyr-His-Ile-Thr (YHIT; Peptide fragment) [SEQ ID NO: 1, adiponectin-derived peptide fragment] | significantly increased | increased | –
